By EC50 is commonly meant the concentration needed to bring the measured effect to its halfway point.

The first assay deals with Aβ42. Description: In vitro cell screening assay in H4 cells expressing human APP751: Aβ42 by sandwich ELISA. It counts as cell-based. Particulars: Homo sapiens, compounds 0.003-10 μM, incubated overnight (16-18 h), sandwich ELISA of supernatant. A digest of the protocol: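 H4 neuroglioma cells stably expressing wild-type human APP751, switched to Pro293 medium and treated with compounds (0.003-10 μM, 0.33% DMSO) for 16-18 h at 37 °C. Supernatant Aβ42 quantified by sandwich ELISA (C-terminal capture, 4G8-HRP detection, A450); EC50 by sigmoidal fit normalized to DMSO and DAPT controls.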
A general note: ELISA stands for enzyme-linked immunosorbent assay.
In turn, `COc1nc(C2=NOCC(C3CCC(F)(F)CC3)N2)ccc1-n1cnc(C)c1` (single isomer, unassigned; (-)) [Example 139A, (−)-5-(4,4-difluorocyclohexyl)-3-(6-methoxy-5-(4-methyl-1H-imidazol-1-yl)pyridin-2-yl)-5,6-dihydro-4H-1,2,4-oxadiazine] gave an EC50 of 2130 nM. On the same count and under the same terms, the figure for `COc1nc(C2=NOCC(C3CCOCC3)N2)ccc1-n1cnc(C)c1` (single isomer, unassigned; (-)) [Example 143A, (−)-3-(6-methoxy-5-(4-methyl-1H-imidazol-1-yl)pyridin-2-yl)-5-(tetrahydro-2H-pyran-4-yl)-5,6-dihydro-4H-1,2,4-oxadiazine] is above 3000 nM. For the molecule `COc1nc(C2=NOCC(c3oc(C)nc3C)N2)ccc1-n1cnc(C)c1` (single isomer, unassigned; (-)) [Example 161A, (−)-5-(2,4-dimethyloxazol-5-yl)-3-(6-methoxy-5-(4-methyl-1H-imidazol-1-yl)pyridin-2-yl)-5,6-dihydro-4H-1,2,4-oxadiazine], the EC50 is above 3000 nM. On the same count and under the same terms, the figure for `COc1nc(C2=NOCC(c3cnn(C)c3)N2)ccc1-n1cnc(C)c1` (single isomer, unassigned; (-)) [Example 166A, (−)-3-(6-methoxy-5-(4-methyl-1H-imidazol-1-yl)pyridin-2-yl)-5-(1-methyl-1H-pyrazol-4-yl)-5,6-dihydro-4H-1,2,4-oxadiazine] is above 3000 nM.

Still in this assay, the particulars now being: compounds 0.003-10 μM, incubated overnight (16-18 h), sandwich ELISA of supernatant.
Turning to `COc1nc(C2=NOCC(c3cc4c(F)cccc4o3)N2)ccc1-n1cnc(C)c1` (single isomer, unassigned; (-)) [Example 99B, (−)-5-(4-fluorobenzofuran-2-yl)-3-(6-methoxy-5-(4-methyl-1H-imidazol-1-yl)pyridin-2-yl)-5,6-dihydro-4H-1,2,4-oxadiazine], it took 25.7 nM to reach a half-maximal effect (EC50). With `COc1nc(C2=NOCC(c3oc4ccc(F)cc4c3C)N2)ccc1-n1cnc(C)c1` (single isomer, unassigned; (-)) [Example 101A, (−)-5-(5-fluoro-3-methylbenzofuran-2-yl)-3-(6-methoxy-5-(4-methyl-1H-imidazol-1-yl)pyridin-2-yl)-5,6-dihydro-4H-1,2,4-oxadiazine], a half-maximal effect (EC50) was put at 1570 nM. On the same count and under the same terms, the figure for `COc1nc(C2=NOCC(c3cn(C)c4cc(F)c(C(F)(F)F)cc34)N2)ccc1-n1cnc(C)c1` (single isomer, unassigned; (-)) [Example 104A, (−)-5-(6-fluoro-1-methyl-5-(trifluoromethyl)-1H-indol-3-yl)-3-(6-methoxy-5-(4-methyl-1H-imidazol-1-yl)pyridin-2-yl)-5,6-dihydro-4H-1,2,4-oxadiazine] is 167 nM; for `COc1nc(C2=NOCC(c3ccc(Cl)c(F)c3)N2)ccc1-n1cnc(C)c1` (single isomer, unassigned; (-)) [Example 106A, (−)-5-(4-chloro-3-fluorophenyl)-3-(6-methoxy-5-(4-methyl-1H-imidazol-1-yl)pyridin-2-yl)-5,6-dihydro-4H-1,2,4-oxadiazine] it is above 3000 nM; for `COc1nc(C2=NOCC(c3ccc(F)c(Cl)c3)N2)ccc1-n1cnc(C)c1` (single isomer, unassigned; (-)) [Example 108A, (−)-5-(3-chloro-4-fluorophenyl)-3-(6-methoxy-5-(4-methyl-1H-imidazol-1-yl)pyridin-2-yl)-5,6-dihydro-4H-1,2,4-oxadiazine] it is 2630 nM. Take `COc1nc(C2=NOCC(c3cc(F)cc(Cl)c3)N2)ccc1-n1cnc(C)c1` (single isomer, unassigned; (-)) [Example 111A, (−)-5-(3-chloro-5-fluorophenyl)-3-(6-methoxy-5-(4-methyl-1H-imidazol-1-yl)pyridin-2-yl)-5,6-dihydro-4H-1,2,4-oxadiazine]: the EC50 is above 3000 nM. As for `COc1nc(C2=NOCC(c3cccc(C(F)(F)F)c3)N2)ccc1-n1cnc(C)c1` (single isomer, unassigned; (-)) [Example 113A, (−)-3-(6-methoxy-5-(4-methyl-1H-imidazol-1-yl)pyridin-2-yl)-5-(3-(trifluoromethyl)phenyl)-5,6-dihydro-4H-1,2,4-oxadiazine], the EC50 is above 3000 nM.

As for `COc1nc(C2=NOCC(c3ccc(C4CC4)cc3)N2)ccc1-n1cnc(C)c1` (single isomer, unassigned; (-)) [Example 116A, (−)-5-(4-cyclopropylphenyl)-3-(6-methoxy-5-(4-methyl-1H-imidazol-1-yl)pyridin-2-yl)-5,6-dihydro-4H-1,2,4-oxadiazine], a half-maximal response (EC50) required 767 nM. On the same count and under the same terms, the figure for `COc1nc(C2=NOCC(c3cc(Cl)cc(Cl)c3)N2)ccc1-n1cnc(C)c1` (single isomer, unassigned; (-)) [Example 118A, (−)-5-(3,5-dichlorophenyl)-3-(6-methoxy-5-(4-methyl-1H-imidazol-1-yl)pyridin-2-yl)-5,6-dihydro-4H-1,2,4-oxadiazine] is 1510 nM; for `COc1nc(C2=NOCC(c3nn(C)c4ccccc34)N2)ccc1-n1cnc(C)c1` (single isomer, unassigned; (-)) [Example 124A, (−)-3-(6-methoxy-5-(4-methyl-1H-imidazol-1-yl)pyridin-2-yl)-5-(1-methyl-1H-indazol-3-yl)-5,6-dihydro-4H-1,2,4-oxadiazine] it is 1060 nM. `COc1nc(C2=NOCC(c3cccc(C4CC4)c3)N2)ccc1-n1cnc(C)c1` (single isomer, unassigned; (-)) [Example 127A, (−)-5-(3-cyclopropylphenyl)-3-(6-methoxy-5-(4-methyl-1H-imidazol-1-yl)pyridin-2-yl)-5,6-dihydro-4H-1,2,4-oxadiazine] gave an EC50 of 1030 nM. Still for that read-out and setting: the figure for `COc1nc(C2=NOCC(c3ccccc3C)N2)ccc1-n1cnc(C)c1` (single isomer, unassigned; (-)) [Example 131B, (−)-3-(6-methoxy-5-(4-methyl-1H-imidazol-1-yl)pyridin-2-yl)-5-(o-tolyl)-5,6-dihydro-4H-1,2,4-oxadiazine] is above 3000 nM; for `COc1nc(C2=NOCC(c3cccc(C#N)c3)N2)ccc1-n1cnc(C)c1` (single isomer, unassigned; (-)) [Example 141A, (−)-3-(3-(6-methoxy-5-(4-methyl-1H-imidazol-1-yl)pyridin-2-yl)-5,6-dihydro-4H-1,2,4-oxadiazin-5-yl) benzonitrile] it is above 3000 nM; for `COc1cccc(C2CON=C(c3ccc(-n4cnc(C)c4)c(OC)n3)N2)c1` (single isomer, unassigned; (-)) [Example 145A, (−)-3-(6-methoxy-5-(4-methyl-1H-imidazol-1-yl)pyridin-2-yl)-5-(3-methoxyphenyl)-5,6-dihydro-4H-1,2,4-oxadiazine] it is 2670 nM. The molecule `COc1nc(C2=NOCC(C(C)(C)C)N2)ccc1-n1cnc(C)c1` (single isomer, unassigned; (-)) [Example 147A, (−)-5-(tert-butyl)-3-(6-methoxy-5-(4-methyl-1H-imidazol-1-yl)pyridin-2-yl)-5,6-dihydro-4H-1,2,4-oxadiazine] came in with an EC50 of 130 nM. Take `COc1nc(C2=NOCC(C)N2)ccc1-n1cnc(C)c1` (single isomer, unassigned; (-)) [Example 149B, (−)-3-(6-methoxy-5-(4-methyl-1H-imidazol-1-yl)pyridin-2-yl)-5-methyl-5,6-dihydro-4H-1,2,4-oxadiazine]: the EC50 is above 3000 nM. Same read-out and setting: the figure for `COc1nc(C2=NOCC(c3ccc(C#N)cc3)N2)ccc1-n1cnc(C)c1` (single isomer, unassigned; (-)) [Example 151A, (−)-4-(3-(6-methoxy-5-(4-methyl-1H-imidazol-1-yl)pyridin-2-yl)-5,6-dihydro-4H-1,2,4-oxadiazin-5-yl) benzonitrile] is above 3000 nM.

Regarding `COc1nc(C2=NOCC(CC(C)C)N2)ccc1-n1cnc(C)c1` (single isomer, unassigned; (-)) [Example 154B, (−)-5-isobutyl-3-(6-methoxy-5-(4-methyl-1H-imidazol-1-yl)pyridin-2-yl)-5,6-dihydro-4H-1,2,4-oxadiazine], the EC50 came to 199 nM. The same measure, in the same setting: the figure for `COc1nc(C2=NOCC(c3cscn3)N2)ccc1-n1cnc(C)c1` (single isomer, unassigned; (-)) [Example 156B, (−)-3-(6-methoxy-5-(4-methyl-1H-imidazol-1-yl)pyridin-2-yl)-5-(thiazol-4-yl)-5,6-dihydro-4H-1,2,4-oxadiazine] is above 3000 nM; for `COc1nc(C2=NOCC(C3CCC3)N2)ccc1-n1cnc(C)c1` (single isomer, unassigned; (-)) [Example 163B, (−)-5-cyclobutyl-3-(6-methoxy-5-(4-methyl-1H-imidazol-1-yl)pyridin-2-yl)-5,6-dihydro-4H-1,2,4-oxadiazine] it is 368 nM. Still for that read-out and setting: the figure for `COc1nc(C2=NOCC(c3ccccn3)N2)ccc1-n1cnc(C)c1` (single isomer, unassigned; (-)) [Example 168B, (−)-3-(6-methoxy-5-(4-methyl-1H-imidazol-1-yl)pyridin-2-yl)-5-(pyridin-2-yl)-5,6-dihydro-4H-1,2,4-oxadiazine] is above 3000 nM; for `COc1nc(C2=NOCC(C3CCCC3)N2)ccc1-n1cnc(C)c1` (single isomer, unassigned; (-)) [Example 171B, (−)-5-cyclopentyl-3-(6-methoxy-5-(4-methyl-1H-imidazol-1-yl)pyridin-2-yl)-5,6-dihydro-4H-1,2,4-oxadiazine] it is 107 nM. Molecule `COc1nc(C2=NOCC(C3CCS(=O)(=O)CC3)N2)ccc1-n1cnc(C)c1` (single isomer, unassigned; (-)) [Example 177B, (−)-4-(3-(6-methoxy-5-(4-methyl-1H-imidazol-1-yl)pyridin-2-yl)-5,6-dihydro-4H-1,2,4-oxadiazin-5-yl) tetrahydro-2H-thiopyran 1,1-dioxide] returned a 50% effective concentration (EC50) above 3000 nM.

The values are drawn from patent US9802927B2, “Oxadiazine compounds and methods of use thereof” (Denali Therapeutics, Inc., priority 2015, dated 2017).
